Patent US20250382631A1, “PROTAC-CID SYSTEMS FOR USE IN MULTIPLEX GENE REGULATION” (William Marsh Rice University, priority 2022, published 2025)
Read-outs that look alike come from different tables or passages of the source.

Experiments:
[1] = tested on: pUAS-1-driven EYFP expression in HEK293T cells transfected with GAL4- and VPR-fused PROTAC target protein / E3 ubiquitin ligase; assay: PROTAC-CID inducible EYFP gene activation, flow cytometry; format: cell-based, human; settings: for Bottom (best-fit value) / Span (best-fit value) / Top (best-fit value): Table 4 nonlinear regression of EYFP activation; for Bottom (best-fit value) / Span (best-fit value) / Top (best-fit value) / Hillslope (best-fit value) / logEC50 (best-fit value) / EC50: FIG. 13A
Protocol: Fluorescence assay using flow cytometry analysis. Cells were treated with 0.05% Trpsin EDTA (Thermo Fisher Scientific no. 25300054) or TrypLE (Thermo Fisher Scientific no. 12605028) after transfection and centrifuged at 3000 g for 5 min. Supernatant was removed and the cell pellet was resuspended with 200 μL phosphate buffered saline (PBS) without calcium and magnesium (Thermo Fisher Scientific no. 10010023). Cells were transferred into 12×75 mm flow tubes (Global Scientific no. 110410). Cells were analyzed by MA900 flow cytometry (SONY). 405 nm laser (FL6 filter) was used for testing the BFP channel. 488 nm (FL1 filter) was used for testing the EYFP and GFP channel. Automated alignment using Automatic Setup Beads kit (SONY no. LE-B3001) is performed before running samples. In FIGS. 3A, 3B, and 17, experiments were performed under 2% FSC, 17% BSC, 24% FL1. In FIG. 18, experiments were performed under 2% FSC, 17% BSC, 27% FL1. All the other experiments were performed under 2% FSC, 17% BSC, 24% FL1 and 27% FL6. Flow cytometry data was processed and analyzed by FlowJo 10. Events were first gated with forward scatter-Area (FSC-A) and side scatter-Area (SSC-A) to select viable cells and remove the debris and dead cells. Cells were further gated with FSC-A and FSC-Height (FSC-H) for selecting single cells. The mean intensity of the reporter fluorescent protein (BFP and EYFP) in viable and single cell populations were calculated by FlowJo 10 as the mean of FL6-A and FL1-A. When calculating the fold change of relative fluorescence units (RFU), the relative fluorescence units of EYFP was calculated by dividing the mean of fluorescence intensity of EYFP with the mean of BFP fluorescence intensity for normalization as the following formula: […]
Next, the mean of the normalized relative fluorescence units of induced group were divided by the value of control group for calculating the fold change as the following formula: […]
Transfection and microscopy. HEK293T cells (American Type Culture Collection, no. CRL-3216) were cultured with high-glucose Dulbecco's modified Eagle's medium (DMEM) (Thermo Fisher Scientific no. 10569044) with 10% fetal bovine serum (FBS) (Thermo Fisher Scientific no. 10437028) and 1×penicillin-streptomycin (Thermo Fisher Scientific no. 15140122) at 37° C. with 5% CO2. Except for the data in FIGS. 3C, 3E, and 3H, cells were plated into 96 well plate (Corning no. 3598) and transfected by Polyethyleneimine Max (PEI Max) (Polysciences no. 24765-1). 1.5 μL PEI Max (1 mg/mL, pH=7.1) and 100 μl DMEM were mixed with plasmids to be slowly dropped into the cell medium after 30 mins of incubation. Medium was changed 12 hours post-transfection. The inductive small molecules, including Rapamycin (STEM CELL technologies no. 73362), dTAG-13 (TOCRIS no. 6605/5), dTAG^V-1 (TOCRIS no. 6744-5), dBRD9 (TOCRIS no. 6606/5), dTRIM24 (TOCRIS no. 6607/5), MZ1 (TOCRIS no. 6154/5), AT1 (TOCRIS no. 6356/5), TL13-12 (TOCRIS no. 6744/5), TL13-112 (TOCRIS no. 6745/5), dTAG-7 (TOCRIS no. 69125), ZXH3-26 (TOCRIS no. 6713/5) and ABA (GoldBio no. A-050-100), dissolved in Dimethyl sulfoxide (DMSO) (Sigma, no. D8418) were added. For the microscopy observation, the images were taken by Microscopy EVOS (Life Technologies) and processed by ImageJ (Schneider et al., 2012). If not otherwise noted, 60 ng of each plasmid were used for each sample.
Step-by-step fluorescence protein activation assay protocol. Reagents: • 1. PEI Max (Polysciences no. 24765-1) • 2. DMEM, high glucose, GlutaMAX™ Supplement, pyruvate (Thermo Fisher Scientific no. 10569044) • 3. Penicillin-Streptomycin (10,000 U/mL) (Thermo Fisher Scientific no. 15140122) • 4. Fetal Bovine Serum 500ML (FBS) (Thermo Fisher Scientific no. 10437028) • 5. TrypLE™ Express Enzyme (1×), phenol red (Thermo Fisher Scientific no. 12605068) • 6. PBS pH=7.4 (Thermo Fisher Scientific no. 10010023) • 7. Sony sorting chip […] for MA900 (SONY no. LE-C3210) • 8. Automatic Setup Beads kit (SONY no. LE-B3001) • 9. […]

[2] = tested on: pUAS-2-Fluc expression in HEK293T cells with cognate or non-cognate GAL4/VPR protein pairs; assay: Orthogonality analysis, Firefly luciferase (Fluc) luminescence; format: cell-based, human; settings: seven different protein pairs, 2 days, FIGS. 2A and 14
Protocol: Luciferase luminescence intensity measurement. Before transfection, HEK293T cells were seeded in clear bottom 96 well assay plates (Corning no. 3610) with 100 μL DMEM with 10% FBS and 1× penicillin-streptomycin at 37° C. with 5% CO2. When cells reached 50% confluency, 1.5 μL PEI Max (1 mg/mL, pH=7.1) and 100 μL DMEM were mixed with 60 ng of each plasmid (GAL4 and VPR fused target protein or E3 ubiquitin ligase, pUAS-2-Fluc) for 30 min at room temperature. Mixture was transferred into cells gently. 12 h after transfection, medium was changed, and the inductive small molecules were supplied. 2-days post induction, 120 μL of medium was aspirated from each well containing 200 μL of medium, leaving 80 μL of medium per well, then treated with 40 μL of lysis buffer (500 mM DTT (Sigma no. D0632), 10 mM coenzyme A (RPI no. C95275), 100 mM ATP (Thermo Fisher Scientific no. R1441), 80 mg/mL D-luciferin (GoldBio no. LUCNA-100), Triton lysis buffer (0.1082 M Tris-HCl, 0.0419 M Tris-Base, 75 mM NaCl, 3 mM MgCl2)). Plate was shaken with 20 seconds in “Orbital” mode with frequency of 432 rpm and Amplitude of 1 mm to lysis the cells. Recording the luminescence by plate reader Infinite M200 (TECAN) with 1000 ms integration time using Megellan v1.7 (TECAN). Mean of luciferase luminescence relative light units (RLU) was calculated by the average of three biological replications. Normalized RLU were calculated by dividing RLU of the tested group with mean of RLU of DMSO treated control group for normalization: […]

[3] = Table 4 nonlinear regression, Prism 9 [Agonist] vs. response variable slope (four parameters), no unit in table (the source gives nM), read-out: EC50 (best-fit value)
[4] = dose-response, read-out: EC50 for gene activation

Row | Compound | grades of EYFP intensity ([1]; HEK293T transfected with GAL4-VHL, TRIM24^BD-VPR, BRD4^BD2-VPR and reporter plasmid, FIG. 2E: dTRIM24, MZ1 100 nM) | Bottom (best-fit value) [1] | Span (best-fit value) [1] | Top (best-fit value) [1] | Hillslope (best-fit value) ([1]; Table 4 nonlinear regression) | logEC50 (best-fit value) ([1]; Table 4 nonlinear regression) | EC50 [1, 3] | EC50 [1, 4] | orthogonality: Fluc activation with cognate vs non-cognate protein partners [2]
1 | Cc1ncsc1-c1ccc(CNC(=O)[C@@H]2C[C@@H](O)CN2C(=O)[C@@H](NC(=O)COCCOCCOCCNC(=O)C[C@@H]2N=C(c3ccc(Cl)cc3)c3c(sc(C)c3C)-n3c(C)nnc32)C(C)(C)C)cc1 [MZ1] | 13 fold | 1.416 | 319.6 | 321 | 1.728 | 1.51 | 32.4 nM | 32 nM | interact with the same protein pairs
2 | CC[C@H](C(=O)N1CCCC[C@H]1C(=O)O[C@H](CCc1ccc(OC)c(OC)c1)c1ccccc1OCC(=O)NCCCCCCOc1cccc2c1C(=O)N(C1CCC(=O)NC1=O)C2=O)c1cc(OC)c(OC)c(OC)c1 (some centres unmarked) [dTAG-13] |  | 2.581 | 135.7 | 138.3 | 3.384 | 1.724 | 53 nM | 53 nM | only activated Fluc expression in the cells transfected with plasmids containing GAL4-FKBP12^F36V (SEQ ID NO: 1) and CRBN-VPR (SEQ ID NO: 2) coding regions
